{"source": "patent US8236346B2", "about": "“Method for reducing amyloid deposition, amyloid neurotoxicity, and microgliosis with (-)-nilvadipine enantiomer” (Alzheimer's Institute of America, Inc, priority 2007, dated 2012)", "key": {"[1]": {"test_system": "Aβ deposition (amyloid burden)", "experiment": "Chronic administration of nilvadipine on Aβ deposition (amyloid burden), 4G8 immunostaining", "format": "in vivo, TgAPPsw mice", "protocol": "The 4G8 immunostaining technique was chosen for determining the Aβ burden because of its robust signal and optimal results for quantitative analysis of Aβ deposition. Briefly, paraffin sections were subjected to immunohistochemistry as described previously (Nakagawa, Y et al., Exp. Neurol., 163:244-252, 2000). Sections were deparaffinized in xylene, hydrated in a series of ethanol and deionized water, and subjected to an antigen retrieval step by immersing sections in 88% formic acid for 60 min before immunohistochemistry for Aβ. Sections were washed in water, and endogenous peroxidases were quenched using a freshly prepared mixture of methanol (150 ml) plus hydrogen peroxide (33%, 30 ml). The avidin-biotin complex method was used according to the instructions of the vendor (Vector Laboratories, Burlingame, Calif.). Amyloid burden was assessed by determining the percentage of the brain region that stained positive for Aβ. Negative controls included the application of the same immunohistochemistry protocol to sections, except preimmune serum was applied instead of primary antibody."}, "CD45+ microglia": {"test_system": "CD45+ microglia", "experiment": "Chronic administration of nilvadipine on microglial activation, CD45 immunostaining", "format": "in vivo, TgAPPsw mice", "protocol": "Briefly, immunohistochemistry for CD45, a specific marker of microglia, was conducted on the cryostat brain sections. CD45-positive microglial cells were immunolocalized by incubation with a mouse monoclonal antibody against CD45 (Chemicon International) overnight at 4° C., followed by application of a biotinylated rabbit anti-mouse secondary antibody for 30 minutes. Detection of CD45 was completed with diaminobenzidine chromogen substrate, which produces a brown cell surface stain on CD45-positive microglial cells."}, "[2]": {"test_system": "N9 murine microglial cells", "experiment": "LPS-induced microglial activation, TNF-α production by ELISA", "format": "cell-based", "protocol": "N9 murine microglial cells are well characterized scavenger murine microglial clones derived from embryonic mouse brain. The extent of microglial activation was determined by TNF-α production (pg/ml) measured by ELISA. […] Microglial cells in the presence of 1 μg/ml LPS produced about 820 pg/ml TNF-α, an […] from the control cells and nilvadipine-administered cells."}, "[3]": {"test_system": "human neuronal progenitor cells (HNPC)", "experiment": "Aβ neurotoxicity, LDH release", "format": "cell-based", "conditions": "100 nM nilvadipine with 30 μM AgAβ, three days", "protocol": "Cyclic AMP (1 mM) (Sigma) was added to the culture medium and the HNPC cells were incubated at 37° C. for 48 hours or more under serum free conditions. This medium allowed differentiation of the progenitors into cells of neuronal lineage, as was confirmed by the staining of most of the cells with antibodies against the microtubule-associated protein, MAP-2. Neurotoxicity was assessed by measuring the amount of lactic dehydrogenase (LDH; an intracellular enzyme found in all cells) released from the cells."}, "[4]": {"test_system": "human glioblastoma cells transfected with APPsw", "experiment": "APP processing, Aβ1-40 production by ELISA", "format": "cell-based"}, "[5]": {"test_system": "7W WT APP751 Chinese hamster ovary cells", "experiment": "Aβ1-40 and Aβ1-42 production by ELISA", "format": "cell-based", "conditions": "24 hours treatment", "protocol": "Production of Aβ1-40 and Aβ1-42 in the culture medium was measured by using a commercially available human Aβ1-40 ELISA (Biosource, CA) and commercially available human Aβ1-42 ELISA (Biosource, CA), respectively."}, "L-type calcium channels": {"biological_target": "L-type calcium channels (Rattus norvegicus, UniProt P22002)", "sequence (P22002 whole entry)": "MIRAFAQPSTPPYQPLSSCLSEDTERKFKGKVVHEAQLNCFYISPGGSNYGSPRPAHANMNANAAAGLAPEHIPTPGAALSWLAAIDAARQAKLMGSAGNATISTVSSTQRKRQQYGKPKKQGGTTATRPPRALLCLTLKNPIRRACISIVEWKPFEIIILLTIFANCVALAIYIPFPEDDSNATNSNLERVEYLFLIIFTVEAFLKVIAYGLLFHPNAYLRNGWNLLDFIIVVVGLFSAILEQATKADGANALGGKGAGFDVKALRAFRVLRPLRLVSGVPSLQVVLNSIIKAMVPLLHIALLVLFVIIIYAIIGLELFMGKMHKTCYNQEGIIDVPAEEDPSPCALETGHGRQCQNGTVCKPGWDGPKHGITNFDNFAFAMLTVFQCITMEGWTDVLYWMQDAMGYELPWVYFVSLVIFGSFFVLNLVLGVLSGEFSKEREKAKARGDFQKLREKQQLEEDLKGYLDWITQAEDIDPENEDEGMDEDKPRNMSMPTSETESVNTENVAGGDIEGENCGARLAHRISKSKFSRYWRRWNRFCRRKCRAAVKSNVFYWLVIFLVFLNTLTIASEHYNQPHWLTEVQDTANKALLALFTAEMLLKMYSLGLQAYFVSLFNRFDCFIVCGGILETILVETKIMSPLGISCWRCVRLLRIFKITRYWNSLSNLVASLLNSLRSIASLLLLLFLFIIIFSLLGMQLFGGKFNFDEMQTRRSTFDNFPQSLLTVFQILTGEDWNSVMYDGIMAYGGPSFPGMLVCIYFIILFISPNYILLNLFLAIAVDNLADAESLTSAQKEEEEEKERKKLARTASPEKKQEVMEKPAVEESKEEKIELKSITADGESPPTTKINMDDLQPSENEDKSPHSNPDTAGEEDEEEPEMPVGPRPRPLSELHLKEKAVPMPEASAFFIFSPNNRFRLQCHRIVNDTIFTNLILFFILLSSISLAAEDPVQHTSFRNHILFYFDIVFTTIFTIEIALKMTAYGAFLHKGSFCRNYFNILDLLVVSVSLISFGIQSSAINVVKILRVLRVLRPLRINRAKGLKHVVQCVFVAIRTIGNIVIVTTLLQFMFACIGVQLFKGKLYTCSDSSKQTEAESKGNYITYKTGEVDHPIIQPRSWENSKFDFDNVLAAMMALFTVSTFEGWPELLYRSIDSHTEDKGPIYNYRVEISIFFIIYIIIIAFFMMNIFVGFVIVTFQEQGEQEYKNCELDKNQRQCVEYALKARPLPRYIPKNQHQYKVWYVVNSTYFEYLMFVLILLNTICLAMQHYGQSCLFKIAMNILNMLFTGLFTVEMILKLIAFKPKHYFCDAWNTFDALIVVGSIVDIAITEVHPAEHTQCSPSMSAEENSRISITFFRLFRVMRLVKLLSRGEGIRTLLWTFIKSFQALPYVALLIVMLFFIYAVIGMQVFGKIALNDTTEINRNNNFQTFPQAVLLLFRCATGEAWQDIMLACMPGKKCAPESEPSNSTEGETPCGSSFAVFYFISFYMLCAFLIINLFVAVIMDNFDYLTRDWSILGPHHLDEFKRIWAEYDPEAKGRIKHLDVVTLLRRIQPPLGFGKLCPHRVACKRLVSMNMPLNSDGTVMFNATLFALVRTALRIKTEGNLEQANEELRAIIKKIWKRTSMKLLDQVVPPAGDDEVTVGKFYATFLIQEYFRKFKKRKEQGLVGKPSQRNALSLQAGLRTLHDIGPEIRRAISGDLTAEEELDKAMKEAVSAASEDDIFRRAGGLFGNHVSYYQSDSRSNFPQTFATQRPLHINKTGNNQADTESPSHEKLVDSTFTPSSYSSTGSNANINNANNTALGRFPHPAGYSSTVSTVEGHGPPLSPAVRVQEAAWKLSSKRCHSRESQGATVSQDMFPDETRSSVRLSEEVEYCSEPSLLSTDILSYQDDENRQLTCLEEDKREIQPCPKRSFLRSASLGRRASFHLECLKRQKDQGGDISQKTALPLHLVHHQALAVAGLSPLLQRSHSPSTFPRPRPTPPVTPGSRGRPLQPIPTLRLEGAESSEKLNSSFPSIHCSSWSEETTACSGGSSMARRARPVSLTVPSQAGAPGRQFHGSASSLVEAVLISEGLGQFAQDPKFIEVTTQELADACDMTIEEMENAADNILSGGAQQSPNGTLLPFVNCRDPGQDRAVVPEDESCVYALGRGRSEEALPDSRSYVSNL", "sequence (P54290 25-944 partner limits assumed)": "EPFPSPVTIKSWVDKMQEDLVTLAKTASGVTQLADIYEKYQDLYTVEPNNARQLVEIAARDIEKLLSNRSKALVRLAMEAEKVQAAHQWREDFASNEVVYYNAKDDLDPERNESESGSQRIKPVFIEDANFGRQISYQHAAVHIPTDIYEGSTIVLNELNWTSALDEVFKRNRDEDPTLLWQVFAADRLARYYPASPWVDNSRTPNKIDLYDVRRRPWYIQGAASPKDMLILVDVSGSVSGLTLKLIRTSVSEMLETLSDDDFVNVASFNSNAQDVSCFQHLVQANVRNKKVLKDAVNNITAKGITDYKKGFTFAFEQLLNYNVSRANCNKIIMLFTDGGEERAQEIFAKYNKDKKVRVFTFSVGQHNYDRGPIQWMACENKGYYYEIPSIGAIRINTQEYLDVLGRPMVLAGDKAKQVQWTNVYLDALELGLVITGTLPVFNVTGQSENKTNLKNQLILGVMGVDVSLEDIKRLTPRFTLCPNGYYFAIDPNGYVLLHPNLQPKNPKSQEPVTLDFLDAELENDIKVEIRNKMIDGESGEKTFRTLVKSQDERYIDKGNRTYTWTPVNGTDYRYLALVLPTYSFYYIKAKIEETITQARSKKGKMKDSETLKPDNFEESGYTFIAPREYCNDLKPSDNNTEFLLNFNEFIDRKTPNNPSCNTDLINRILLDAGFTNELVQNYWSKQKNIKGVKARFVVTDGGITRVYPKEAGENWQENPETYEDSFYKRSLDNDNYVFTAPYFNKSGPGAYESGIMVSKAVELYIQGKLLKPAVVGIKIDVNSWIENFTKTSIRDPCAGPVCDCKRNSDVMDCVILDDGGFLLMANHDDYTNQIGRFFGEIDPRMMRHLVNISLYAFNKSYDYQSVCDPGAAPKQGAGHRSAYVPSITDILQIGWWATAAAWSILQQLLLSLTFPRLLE", "sequence (P54290 945-1091 partner limits assumed)": "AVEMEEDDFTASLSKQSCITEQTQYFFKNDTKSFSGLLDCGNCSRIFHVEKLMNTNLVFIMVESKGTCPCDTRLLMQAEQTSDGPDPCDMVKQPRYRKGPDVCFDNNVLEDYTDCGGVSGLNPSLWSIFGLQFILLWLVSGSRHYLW", "experiment": "FPL64176 induced vasoconstriction in rat aortae", "conditions": "100 nM, 2 min prior to 1 μM FPL64176"}, "Aβ deposits": {"test_system": "Aβ deposits", "conditions": "Lim et al., J. Neurosci. 2000; cited from earlier work"}}}
{"molecule": "COC(=O)C1=C(C#N)NC(C)=C(C(=O)OC(C)C)C1c1cccc([N+](=O)[O-])c1", "note": "(racemic) [nilvadipine, isopropyl-3-methyl-2-cyano-1,4-dihydro-6-methyl-4-(m-nitrophenyl)-3,5-pyridine-dicarboxylate]", "values": [{"measurement": "reduction of Aβ burden compared to controls", "setting": "[1]; CA1 region of the hippocampus", "value": "about 52%"}, {"measurement": "reduction of Aβ burden compared to controls", "setting": "[1]; CA2-CA3 region of the hippocampus", "value": "about 50%"}, {"measurement": "reduction of Aβ burden compared to controls", "setting": "[1]; motor cortex", "value": "about 58%"}, {"measurement": "reduction of Aβ burden compared to controls", "setting": "[1]; parietal cortex", "value": "about 65%"}, {"measurement": "reduction of Aβ burden compared to controls", "setting": "[1]; pyriform cortex", "value": "about 58%"}, {"measurement": "reduction of Aβ burden compared to controls", "setting": "[1]; visual cortex", "value": "about 62%"}, {"measurement": "reduction of microglial activation compared to controls", "setting": "CD45+ microglia; hippocampus", "value": "about 33%"}, {"measurement": "reduction of microglial activation compared to controls", "setting": "CD45+ microglia; motor cortex", "value": "about 27%"}, {"measurement": "reduction of microglial activation compared to controls", "setting": "CD45+ microglia; parietal cortex", "value": "about 43%"}, {"measurement": "TNF-α production", "setting": "[2]; 50 nM nilvadipine, no LPS", "value": "about 40 pg/ml"}, {"measurement": "TNF-α production", "setting": "[2]; 1 μg/ml LPS plus 50 nM nilvadipine, 24 hours", "value": "about 670 pg/ml"}, {"measurement": "TNF-α production", "setting": "[2]; 1 μg/ml LPS plus 500 nM nilvadipine, 24 hours", "value": "about 610 pg/ml"}, {"measurement": "decrease of LDH release", "setting": "[3]", "value": "about 44%"}, {"measurement": "reduction of Aβ1-40 production", "setting": "[4]; 50 nM, 24 hours", "value": "about 9%"}, {"measurement": "reduction of Aβ1-40 production", "setting": "[4]; 50 nM, 48 hours", "value": "about 18%"}, {"measurement": "reduction of Aβ1-40 production", "setting": "[4]; 250 nM, 24 hours", "value": "about 15%"}, {"measurement": "reduction of Aβ1-40 production", "setting": "[4]; 250 nM, 48 hours", "value": "about 5%"}]}
{"molecule": "COC(=O)C1=C(C#N)NC(C)=C(C(=O)OC(C)C)[C@H]1c1cccc([N+](=O)[O-])c1", "note": "[(+)-nilvadipine]", "values": [{"measurement": "effect on Aβ1-40 production", "setting": "[5]; dose response", "value": "dose dependently inhibit"}, {"measurement": "effect on Aβ1-42 production", "setting": "[5]; low dose", "value": "slightly stimulate"}, {"measurement": "effect on FPL64176 induced vasoconstriction", "setting": "L-type calcium channels", "value": "completely antagonizes"}]}
{"molecule": "CC(C)Cc1ccc(C(C)C(=O)O)cc1", "note": "(stereo not drawn) [ibuprofen]", "values": [{"measurement": "effect on Aβ deposits, astrocytosis and dystrophic neuritis", "setting": "Aβ deposits", "value": "reduction in Aβ deposits, astrocytosis, and dystrophic neuritis"}]}
